pIC50: −log10 of the molar value.
Assays:
HBV εRNA = experiment: εRNA/oligonucleotide hybridization inhibition assay with rRNA competitor; type: binding, Hepatitis B virus; conditions: for pIC50: radiolabeled εRNA, 60-fold excess rRNA competitor; for Specificity: ratio RRE+rRNA IC50/εRNA+rRNA IC50, max = inactive in RRE assay
From the text: One assay used in determining the activity of the compounds of the present invention is disclosed in copending U.S. patent application Ser. No. 08/709,342, filed Sep. 6, 1996, the disclosure of which is hereby incorporated herein by reference in its entirety. The assay detects the interaction between target RNA molecule and a test ligand by measuring the ligand's ability to inhibit hybridization between the RNA and a specific complementary oligonucleotide. In one embodiment, the target RNA is radiolabelled and the oligonucleotide is labeled with biotin; in this case, the extent of hybridization is determined by measuring the amount of radiolabeled RNA detected with a streptavidin/biotin-based capture system.
Concentrations of test compounds of between about 0.1 μM and about 200 μM are assayed for inhibition using radiolabeled εRNA in the absence or presence of a large excess of an unlabeled non-specific RNA competitor (such as, e.g., ribosomal RNA, rRNA). Compounds that bind εRNA non-specifically are competitively displaced by the rRNA, resulting in reduced or no inhibition of hybridization between the radiolabeled εRNA and the biotinylated oligonucleotide. Conversely, the inhibitory activity of compounds that specifically bind εRNA is not affected by the presence of the competitor rRNA.
The high throughput assays were performed in 96-well plates containing eighty drugs (5 μl, 60 μg/ml in DMSO) distributed one per well in columns 2-6 and 8-12 of the 8×12 96-well array. The remaining 16 wells in columns 1 and 7 were filled with 5 μl DMSO to serve as the control reactions. 45 μl of reaction mixture containing buffer, salts and radiolabeled target RNA were delivered on each well of the compound-containing plates to yield a 50 μl mixture containing 50 mM Tris-HCl, pH 7.5, 200 mM KCl, 5 mM MgCl2, 5 mM DTT, 6 μg/ml test compound, and 25 nM [^32 P]-labeled εRNA. The reaction was started by addition of the biotinylated oligonucleotide, 262.104 A (5 μl) to a final concentration of 100 nM. The reaction was incubated at 25° C. for 60 minutes, and then 5 μl of 0.3 mg/ml SAAP (streptavidin alkaline phosphatase conjugate, Pierce, Rockford, Ill.) was added. The reaction was incubated for an additional 30 minutes at 25° C. and filtered through 96-well format HATF nitrocellulose filters (Millipore, Bedford, Mass.) using a multiscreen vacuum manifold (Millipore, Bedford, Mass.). Subsequently, 300 μl of wash buffer (50 mM Tris-HCl, pH 7.5, 200 mM KCl) was filtered through to wash the filters. The filters were dried and supplemented with 20 μl scintillation fluid (Super Mix, Wallac Oy, Turku, Finland). The amount of hybrids formed was determined by scintillation counting of the radiolabeled εRNA retained on the filters.
The inhibitory effect of a test compound (expressed as percentage of inhibition, % Inh.) was calculated using the following formula: […]
where Ro is the average retention of hybrids in the 16 identical control reactions in columns 1 and 7 and Rx is the hybrids retained in the presence of a test drug, x.
(§1) Biotinylated oligonucleotides 262.104 A (5′-biotin-TTAGGCACAGCTTGGAGGCTTGAACAGTG-3′) and 208.92 A (5′-biotin-CGTCATTGACGCTGCGCCCA-3′) were synthetically prepared (Oligos Etc., Willsonville, Oreg.). These oligonucleotides are complementary to regions of the εRNA and RRE RNA targets, respectively.
A plasmid containing the target sequence following the bacteriophage SP6 promoter was used as a template for the synthesis of radiolabeled εRNA using [α^32 P]-UTP and SP6 RNA polymerase as described by the suppliers, e.g., Ambion, Austin, Tex., and by methods well known to those of ordinary skill in the art.
Compounds that inhibited the primary screening assay described above were individually titrated in the same assay at concentrations between 0.1 μM and 200 μM in the absence and presence of 60-fold excess rRNA as a non-specific competitor. […]

HIV derived RRE RNA = experiment: heterologous hybridization inhibition assay with RRE RNA; type: binding; conditions: radiolabeled RRE RNA, rRNA competitor
From the text: Specificity is further tested in a third assay in which the radiolabeled RNA is the HIV derived RRE RNA and the biotinylated oligonucleotide is complementary to RRE. Compounds with high specific activity for εRNA are not expected to be inhibitory in the RRE RNA based assay. The specificity of the ligand for εRNA is expressed as the ratio between the IC50 value obtained with the specific target RNA and the IC50 value obtained with a heterologous target (RRE RNA), both in the presence of competitor RNA.
as §1
Compounds that inhibited the primary screening assay described above were individually titrated in the same assay at concentrations between 0.1 μM and 200 μM in the absence and presence of 60-fold excess rRNA as a non-specific competitor. A third titration was performed in a heterologous assay using radiolabeled RRE RNA as the target and the complementary biotinylated oligonucleotide 208.92 A. From these three assays, the IC50 values and specificity for each compound was calculated.
IC50 values using rRNA competitor (from Example 1) and radiolabeled RRE RNA are shown in Table 1 for the following ligands. […] Specificity is calculated as the ratio of RRE+rRNA IC50/εRNA+rRNA IC50.

| Structure (SMILES) | pIC50 (HBV εRNA) | Specificity (HBV εRNA) | RRE + rRNA IC50 (μM) (HIV derived RRE RNA) | pIC50 (HIV derived RRE RNA) |
| --- | --- | --- | --- | --- |
| O=[N+]([O-])c1ccc(Nc2nc(NN=CC(Br)=Cc3ccccc3)nc(Nc3ccccc3)n2)cc1 [Compound 17] | 4.82 | max. | inactive |  |
| CCCCN(CCCC)c1nc(NN=Cc2ccc(O)c(O)c2)nc(Nc2ccc([N+](=O)[O-])cc2)n1 [Compound 26] | 4.82 | max. | inactive |  |
| CCCCN(CCCC)c1nc(N/N=C/C(C)=C/c2ccccc2)nc(Nc2ccc([N+](=O)[O-])cc2)n1 [Compound 31] | 4.52 | max. | inactive |  |
| Nc1cccc(Nc2nc(Nc3cccc(N)c3)nc(N(c3ccccc3)c3ccccc3)n2)c1 [Compound 32] | 4.49 | max. | inactive |  |
| COc1ccc(Nc2nc(NN=Cc3c[nH]c4ccccc34)nc(Nc3ccccc3)n2)cc1 [Compound 36] | 4.54 | 53.8 |  | 2.81 |
| O=[N+]([O-])c1ccc(Nc2nc(NN=Cc3c4ccccc4cc4ccccc34)nc(N3CCCCC3)n2)cc1 [Compound 37] | 4.52 | max. | inactive |  |
| O=[N+]([O-])c1ccc(Nc2nc(NN=Cc3cccc(Br)c3)nc(N3CCCCCC3)n2)cc1 [Compound 45] | 4.40 | max. | inactive |  |
| O=[N+]([O-])c1ccc(Nc2nc(NN=Cc3ccc(-c4ccc([N+](=O)[O-])cc4)o3)nc(N3CCCC3)n2)cc1 [Compound 47] | 4.60 | max. | inactive |  |
| O=[N+]([O-])c1ccc(Nc2nc(NN=Cc3ccccc3F)nc(N3CCCCCC3)n2)cc1 [Compound 48] | 4.52 | max. | inactive |  |
| COc1ccc([N+](=O)[O-])cc1C=NNc1nc(NCc2ccccc2)nc(Nc2ccccc2)n1 [Compound 54] | 4.05 | max. | inactive |  |
| CCCCN(CCCC)c1nc(N/N=C/c2c3ccccc3cc3ccccc23)nc(Nc2ccc([N+](=O)[O-])cc2)n1 [Compound 55] | 4.00 | max. | inactive |  |
| O=[N+]([O-])c1ccc(Nc2nc(NN=Cc3ccc(Cl)c(Cl)c3)nc(N3CCCCC3)n2)cc1 [Compound 57] | 4.30 | max. | inactive |  |
| Cc1ccc(Nc2nc(NN=Cc3ccc(Br)cc3)nc(Nc3ccccc3)n2)c(C)c1 [Compound 59] | 4.05 | max. | inactive |  |
| CCCCN(CCCC)c1nc(NN=Cc2c(C)[nH]c3ccccc23)nc(Nc2ccc([N+](=O)[O-])cc2)n1 [Compound 60] | 4.00 | max. | inactive |  |
| O=[N+]([O-])c1cccc(C=NNc2nc(Nc3cccc4ccccc34)nc(N3CCOCC3)n2)c1O [Compound 64] | 4.14 | max. | inactive |  |
| Cc1ccc(C=NNc2nc(Nc3ccccc3)nc(Nc3ccc([N+](=O)[O-])cc3)n2)cc1 [Compound 66] | 3.95 | max. | inactive |  |

| Structure (SMILES) | pIC50 (HBV εRNA) | Specificity (HBV εRNA) | RRE + rRNA IC50 (μM) (HIV derived RRE RNA) | pIC50 (HIV derived RRE RNA) |
| --- | --- | --- | --- | --- |
| O=[N+]([O-])c1ccc(Nc2nc(NN=Cc3ccc(-c4ccc([N+](=O)[O-])cc4)o3)nc(N3CCOCC3)n2)cc1 [Compound 69] | 4.15 | max. | inactive |  |
| Brc1cc2c(cc1C=NNc1nc(Nc3ccccc3)nc(N3CCCCC3)n1)OCO2 [Compound 70] | 4.09 | max. | inactive |  |
| Fc1ccc(Nc2nc(Nc3cccc(C(F)(F)F)c3)nc(N3CCOCC3)n2)cc1 [Compound 71] | 4.00 | max. | inactive |  |
| CCCCN(CCCC)c1nc(NN=Cc2cc(Br)cc(Br)c2OC)nc(Nc2ccc([N+](=O)[O-])cc2)n1 [Compound 72] | 3.92 | max. | inactive |  |
| Clc1ccccc1C=NNc1nc(Nc2ccccc2)nc(N2CCOCC2)n1 [Compound 73] | 3.92 | max. | inactive |  |
| COc1ccc(/C=N/Nc2nc(Nc3ccc([N+](=O)[O-])cc3)nc(N3CCOCC3)n2)cc1 [Compound 75] | 3.80 | max. | inactive |  |
| Cc1ccc(Nc2nc(NN=Cc3ccc(-c4cccc(C(=O)O)c4)o3)nc(Nc3ccc([N+](=O)[O-])cc3)n2)cc1C [Compound 76] | 3.70 | max. | inactive |  |
| O=[N+]([O-])c1ccc(Nc2nc(NN=Cc3cccc(F)c3)nc(N3CCCCCC3)n2)cc1 [Compound 78] | 3.88 | max. | inactive |  |
| C(=N\Nc1nc(Nc2ccccc2)nc(N2CCOCC2)n1)/c1c[nH]c2ccccc12 [Compound 79] | 3.77 | max. | inactive |  |
| O=[N+]([O-])c1ccc(Nc2nc(N/N=C/c3ccccc3)nc(N3CCCCCC3)n2)cc1 [Compound 80] | 3.70 | max. | inactive |  |
| Cc1ccc(Nc2nc(NN=Cc3ccc(O)cc3)nc(Nc3ccccc3)n2)c(C)c1 [Compound 81] | 3.92 | max. | inactive |  |
| CCCCN(CCCC)c1nc(NN=C(C)c2ccc([N+](=O)[O-])cc2)nc(Nc2ccc([N+](=O)[O-])cc2)n1 [Compound 82] | 3.82 | max. | inactive |  |
| CCCCN(CCCC)c1nc(NN=Cc2cccc(Br)c2)nc(Nc2ccc([N+](=O)[O-])cc2)n1 [Compound 83] | 3.73 | max. | inactive |  |
| C(=NNc1nc(NCc2ccccc2)nc(Nc2ccccc2)n1)c1ccccc1 [Compound 84] | 3.92 | max. | inactive |  |
| CCCCN(CCCC)c1nc(NN=Cc2ccccc2OC)nc(Nc2ccc([N+](=O)[O-])cc2)n1 [Compound 86] | 3.70 | max. | inactive |  |
| O=[N+]([O-])c1ccc(Nc2nc(NN=Cc3c[nH]c4ccccc34)nc(N3CCCCCC3)n2)cc1 [Compound 87] | 5.09 | 37.0 |  | 3.52 |
